“Also recorded” adds a separate entry of the source.

Experimental findings from patent US10799590B2, “Compositions containing a bitter tastant and at least one sophorolipid, and methods of reducing bitter taste attributed to a bitter tastant in an edible composition” (The United States of America, as Represented by the …, priority 2015, dated 2020) are described below.

The test system of the test is T1R3. In words: Chorda tympani whole-nerve responses to lingual taste stimuli, T1R3-KO mice. Format: in vivo. The note with it: lingual application (FIG. 6A, 7). As to the method: Mouse model for sweet property and bitter-masking assay. Recordings of chorda tympani (CT) whole-nerve responses: All protocols involving animals were approved by the Institutional Animal Care and Use Committees at the Monell Center prior to the experiments. The study was performed with mice from two strains: C57BL/6J inbred strain (B6; Jackson Laboratory, Bar Harbor, Me.) bearing the wild-type Tas1r3 allele was used as the control, and the C57BL/6J-Tas1r3^tm1Rjm “gene-knockout” strain (T1R3-KO) lacking the entire T1R3 coding region and devoid of T1R3 protein ([…]., et al., Science, 301: 850-853 (2003)). Afferent signals from taste cells are relayed to the brain via three major gustatory nerves: the chorda tympani, glossopharyngeal, and greater superficial petrosal. […] Neural responses resulting from chemical stimulations of the tongue were fed into an amplifier (Grass Instruments, West Warwick, R.I.) and monitored on an oscilloscope and an audio monitor. Whole-nerve responses were integrated with a time constant of 1.0 s and recorded using a computer for later analysis using a PowerLab system (PowerLab/sp4; AD Instruments, Colorado Springs, Colo.). […] To analyze nerve responses to each stimulus, the magnitudes of integrated responses at 5, 10, 15, 20, and 25 s after stimulus onset were measured and averaged. […]

For the molecule `OC[C@H]1O[C@@H](O[C@@H]2[C@@H](O)[C@H](O)[C@@H](CO)O[C@H]2O)[C@H](O)[C@@H](O)[C@@H]1O` [Sophorose, 2-O-β-D-glucopyranosyl-β-D glucopyranose], the chorda tympani responses result is “serious deficit; also recorded: nearly absent”.
